US20260028330A1, “HETEROARYL CARBOXAMIDE AND RELATED GPR84 ANTAGONISTS AND USES THEREOF” (LIMINAL BIOSCIENCES LIMITED, priority 2022, published 2026)

Molecular target: T1, human GPR84 receptor (Homo sapiens, UniProt Q9NQS5)
T1 construct: host or cells: HEK293 cells, transient transfection
Test: Gαi biosensor BRET assay in transfected HEK293 cells (antagonism of GPR84 agonist ZQ-16)
Format: cell-based
Settings: 200 nmol/L ZQ-16; for inhibition at 10 µM: code F = 10 μM; for inhibition at 2 µM: code A = 2 μM
Excerpt: Background—The following assays can be used for determination of GPR84 activation in living HEK293 cells. The Gαi BRET biosensor (Gagnon et al., 2018; Gales et al., 2006. Nat Struct Mol Biol. 13, 778-86; Saulieres et al., 2012. Nat Chem Biol. 8, 622-30) allows to directly monitor GPR84-mediated activation of Gαi. The Gαi biosensor consists of a Rluc8-tagged Gαi2 subunit, a GFP10-tagged Gγ2 subunit, and an untagged Gβ1. Agonist stimulation and GPR84 activation triggers a physical separation between the RLuc8-Gαi donor and the GFP10-Gγ2 acceptor, resulting in a decrease in BRET signal whose amplitude is correlated to ligand efficacy (Gales et al., 2006). Moreover, signaling functions of GPCRs are tightly regulated by endocytosis, the targeting of receptors to endosomes and their sorting to lysosomes or recycling to the plasma membrane. The early endosomes (EEs) trafficking assay (Namkung et al., 2016. Nat Commun. 7, 12178) uses Rluc8-tagged GPR84 and Renilla GFP (rGFP) attached to the FYVE domain from human endofin/zinc finger FYVE domain-containing protein 16, which binds phosphatidylinositol 3-phosphate in EEs. Agonist stimulation of GPR84-Rluc8 leads to trafficking of the receptor to EEs, and ensuing increase of the donor concentration relative to the rGFP-FYVE acceptor anchored in the same cellular compartment, and thus results in an increase in BRET signal.
Plasmids—The cDNA clones for human GPR84 receptor, human Gαi2, Gβ1, and Gγ2 were obtained from the cDNA Resource Center (www.cdna.org). GFP10 (F64L, S147P, S202F and H231L variant of Aequorea victoria Green Fluorescent Protein) gBlocks gene fragments (Integrated DNA Technologies, IA) and linker were inserted in frame at the N-terminus of human Gγ2. Rluc8 (A55T, C124A, S130A, K136R, A143M, M185V, M253L, and S287L variant of the Renilla reniformis luciferase) gBlocks gene fragment was inserted with linkers in frame in between residues 91 and 92 of Gα2 or at the C-terminus of GPR84. The FYVE domain from human endofin (residues Q739 to K806) attached in frame at the C terminus of a humanized Renilla GFP (rGFP), were synthesized as gBlocks gene fragments.
Bioluminescence Resonance Energy Transfer (BRET) Measurement—HEK293 cells were transfected with GPR84-Rluc8 and rGFP-FYVE for the EEs trafficking biosensor or with GPR84, Gαi2-Rluc8, GFP10-Gγ2, and Gβ1 for the Gαi biosensor. The following day, transiently transfected cells were seeded in 96-well white clear bottom microplates coated with poly-D-lysine and left in culture for 24 hours. Cells were washed once with Tyrode's buffer (140 mmol/L NaCl, 1 mmol/L CaCl2, 2.7 mmol/L KCl, 0.49 mmol/L MgCl2, 0.37 mmol/L NaH2PO4, 5.6 mmol/L glucose, 12 mmol/L NaHCO3, and 25 mmol/L HEPES, pH 7.5) before performing assays in Tyrode's buffer. Test compounds were incubated with cells for 5 (Gui) or 15 (EEs) minutes at 37° C. before addition of 200 nmol/L of the GPR84 agonist ZQ-16 (2-(Hexylthio)-6-hydroxy-4(3H)-pyrimidinone) for 5 minutes at room temperature (Gui) or 30 minutes at 37° C. (EEs). The Rluc8 substrate coelenterazine 400A (Prolume, Lakeside, AZ) was added at a final concentration of 5 μmol/L and BRET readings were collected using an Infinite M1000 microplate reader (Tecan, Morrisville, NC). BRET^2 readings between Rluc8 and GFP10 or rGFP were collected by sequential integration of the signals detected in the 370 to 450 nm (Rluc8) and 510 to 540 nm (GFP10, rGFP) windows. The BRET signal was calculated as the ratio of light emitted by acceptor (GFP10, rGFP) over the light emitted by donor (Rluc8). The values were corrected to net BRET by subtracting the background BRET signal obtained in cells transfected with Rluc8 constructs alone. Ligand-promoted net BRET values were calculated by subtracting vehicle-induced net BRET from ligand-induced net BRET.

T1 sequence (Q9NQS5 whole entry): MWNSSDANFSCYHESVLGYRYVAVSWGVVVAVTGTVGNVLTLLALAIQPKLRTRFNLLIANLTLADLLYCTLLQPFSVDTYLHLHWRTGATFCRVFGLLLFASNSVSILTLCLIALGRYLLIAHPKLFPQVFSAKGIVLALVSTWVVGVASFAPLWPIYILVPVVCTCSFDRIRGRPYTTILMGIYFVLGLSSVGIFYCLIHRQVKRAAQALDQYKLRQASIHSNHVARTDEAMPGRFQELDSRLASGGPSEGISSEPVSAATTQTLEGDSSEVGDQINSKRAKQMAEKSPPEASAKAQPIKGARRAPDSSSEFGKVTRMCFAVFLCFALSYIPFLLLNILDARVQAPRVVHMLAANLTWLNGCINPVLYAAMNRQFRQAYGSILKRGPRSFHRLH

Row | SMILES | IC50 [nM] | inhibition at 10 µM (HEK293, single concentration) [%] | other results
1 | CN(C(=O)c1cn(CC2OCC3(CC3)CO2)nn1)c1cc(C#CC2CC2)ccc1C1CC1 [Compound I-47] | 300 to 1000 | > 75 | 
2 | Cc1ccc(C#CC2CC2)cc1N(C)C(=O)c1c(C)cc(OCC(=O)N(C)C)cc1C [Compound I-35] |  | 25 to 50 | 
3 | Cc1c(NC(=O)c2ccc(C#CC3CC3)cc2)nnn1CC1OCC2(CC2)CO1 [Compound I-62] |  | ≤ 25 | 
4 | Cc1cc(C#CC2CC2)ccc1C(=O)N(C)c1cn(CC2OCC3(CC3)CO2)nn1 [Compound I-19] |  | 50 to 75 | 
5 | O=C(Nc1cc(C#CC2CC2)ccc1C1CC1)c1cn(CC2OCC3(CC3)CO2)nn1 [Compound I-45] |  | ≤ 25 | 
6 | Cc1ccc(C#CC2CC2)cc1NCc1cn(CC2OCC3(CC3)CO2)nn1 [Compound I-11, N-((1-((5,7-dioxaspiro[2.5]octan-6-yl)methyl)-1H-1,2,3-triazol-4-yl)methyl)-5-(cyclopropylethynyl)-2-methylaniline] |  |  | inhibition at 2 µM (HEK293, single concentration): ≤ 25%
7 | Cc1c(N(C)C(=O)c2ccc(C#CC3CC3)cc2)nnn1CC1OCC2(CC2)CO1 [Compound I-61] |  | 50 to 75 | 
8 | Cc1ccc(C#CC2CC2)c(F)c1N(C)C(=O)c1cn(CC2OCC3(CC3)CO2)nn1 [Compound I-37] | ≤ 300 | > 75 | 
9 | Cc1ccc(C#CC2CC2)cc1N(C)C(=O)c1cn(CCC(=O)N(C)C)nn1 [Compound I-24] |  | ≤ 25 | 
10 | Cc1cc(C#CC2CC2)cc(C)c1N(C)C(=O)c1cn(CC2OCC3(CC3)CO2)nn1 [Compound I-60] | 300 to 1000 | > 75 | 
11 | Cc1c(N(C)C(=O)c2cccc(C#CC3CC3)c2)nnn1CC1OCC2(CC2)CO1 [Compound I-63] |  | ≤ 25 | 
12 | Cc1ccc(C#CC2CC2)c2c1N(C(=O)c1cn(CC3OCC4(CC4)CO3)nn1)CC2 [Compound I-4, (1-((5,7-dioxaspiro[2.5]octan-6-yl)methyl)-1H-1,2,3-triazol-4-yl)(4-(cyclopropylethynyl)-7-methylindolin-1-yl)methanone] |  | ≤ 25 | 
13 | Cc1ccc(C#CC2CC2)c2c1N(C(=O)c1cn(CC3OCC4(CC4)CO3)nn1)CCC2 [Compound I-48] |  | > 75 | 
14 | CN(C(=O)c1cn(CC2OCC3(CC3)CO2)nn1)c1cc(C#CC2CC2)ccc1F [Compound I-31] | 1000 to 3000 | > 75 | 
15 | Cc1cc(C#CC2CC2)cc(C)c1NC(=O)c1cn(CC2OCC3(CC3)CO2)nn1 [Compound I-41] |  | ≤ 25 | 
16 | Cc1ccc(C#CC2CC2)cc1Nc1cn(CC2OCC3(CC3)CO2)cn1 [Compound I-15] |  | ≤ 25 | 
17 | Cc1cc(F)c(C#CC2CC2)cc1N(C)C(=O)c1cn(CC2OCC3(CC3)CO2)nn1 [Compound I-100] | ≤ 300 |  | inhibition at 2 µM (HEK293, single concentration): > 75%
18 | Cc1cc(C#CC2CC2)ccc1CN(C)c1cn(CC2OCC3(CC3)CO2)nn1 [Compound I-22] |  | > 75 | 
19 | Cc1cc(C#CC2CC2)cc(F)c1N(C)C(=O)c1cn(CC2OCC3(CC3)CO2)nn1 [Compound I-32] | ≤ 300 | > 75 | 
20 | Cc1ccc(C#CC2CC2)nc1N(C)C(=O)c1cn(CC2OCC3(CC3)CO2)nn1 [Compound I-36] |  | 25 to 50 | 
21 | Cc1ccccc1N(C)C(=O)c1cn(CC2OCC3(CC3)CO2)nn1 [Compound I-33] |  | ≤ 25 | 
22 | Cc1ccc(N(C)C(=O)c2cn(CC3OCC4(CC4)CO3)nn2)nc1C#CC1CC1 [Compound I-50] |  | ≤ 25 | 

Row | SMILES | IC50 [nM] | inhibition at 10 µM (HEK293, single concentration) [%] | other results
23 | Cc1ccc(C#CC2CC2)cc1N(C)C(=O)c1cn(CC(=O)N(C)C)nn1 [Compound I-13, N-(5-(cyclopropylethynyl)-2-methylphenyl)-1-(2-(dimethylamino)-2-oxoethyl)-N-methyl-1H-1,2,3-triazole-4-carboxamide] |  | 25 to 50 | 
24 | CN(C(=O)c1cn(CC2OCC3(CC3)CO2)nn1)c1ccc(C#CC2CC2)cc1F [Compound I-29] | ≤ 300 |  | inhibition at 2 µM (HEK293, single concentration): > 75%
25 | COc1cc(C#CC2CC2)cc(N(C)C(=O)c2cn(CC3OCC4(CC4)CO3)nn2)c1 [Compound I-99] |  | 25 to 50 | 
26 | O=C(Nc1c(F)cc(C#CC2CC2)cc1F)c1cn(CC2OCC3(CC3)CO2)nn1 [Compound I-42] |  | ≤ 25 | 
27 | O=C(c1cn(CC2OCC3(CC3)CO2)nn1)N(c1ccc(C#CC2CC2)cc1F)C1CC1 [Compound I-91] | ≤ 300 |  | inhibition at 2 µM (HEK293, single concentration): > 75%
28 | CN(C(=O)c1cn(CC2OCC3(CC3)CO2)nn1)c1cc(C#CC2CC2)ccc1O [Compound I-49] |  | 25 to 50 | 
29 | Cc1ccc(C#CC2CC2)cc1CN(C)c1cn(CC2OCC3(CC3)CO2)nn1 [Compound I-10, 1-((5,7-dioxaspiro[2.5]octan-6-yl)methyl)-N-(5-(cyclopropylethynyl)-2-methylbenzyl)-N-methyl-1H-1,2,3-triazol-4-amine] |  | 25 to 50 | 
30 | CN(C(=O)c1cn(CC2OCC3(CC3)CO2)nn1)c1c(F)cc(C#CC2CC2)cc1F [Compound I-43] | ≤ 300 |  | inhibition at 2 µM (HEK293, single concentration): > 75%
31 | Cc1cc(C#CC2CC2)ccc1NC(=O)c1cn(CC2OCC3(CC3)CO2)nn1 [Compound I-18] |  | ≤ 25 | 
32 | Cc1cc(C#CC2CC2)ccc1C(=O)Nc1cn(CC2OCC3(CC3)CO2)nn1 [Compound I-20] |  | ≤ 25 | 
33 | Cc1ccc(C#CC2CC2)cc1N(C)C(=O)c1ncc(OCC(=O)N(C)C)cc1C [Compound I-34] |  | ≤ 25 | 
34 | O=C(Nc1cccc(C#CC2CC2)c1)c1cn(CC2OCC3(CC3)CO2)nn1 [Compound I-97] |  | ≤ 25 | 
35 | Cc1ccc(C#CC2CC2)cc1C(=O)Nc1cn(CC2OCC3(CC3)CO2)nn1 [Compound I-9, N-(1-((5,7-dioxaspiro[2.5]octan-6-yl)methyl)-1H-1,2,3-triazol-4-yl)-5-(cyclopropylethynyl)-2-methylbenzamide] |  |  | inhibition at 6.7 µM (HEK293, single concentration, code E = 6.7 μM): ≤ 25%
36 | Cc1cc(C#CC2CC2)ccc1N(C(=O)c1cn(CC2OCC3(CC3)CO2)nn1)C(C)C [Compound I-84] | ≤ 300 |  | inhibition at 2 µM (HEK293, single concentration): > 75%
37 | Cc1ccc(C#CC2CC2)cc1N(C)C(=O)c1cn(CC2OCC3(CC3)CO2)nn1 [Compound I-17] | ≤ 300 |  | inhibition at 2 µM (HEK293, single concentration): > 75%
38 | O=C(Nc1cc(C#CC2CC2)ccc1Cl)c1cn(CC2OCC3(CC3)CO2)nn1 [Compound I-96] |  | ≤ 25 | 
39 | Cc1cc(C#CC2CC2)ccc1N(C)C1(c2cn(CC3OCC4(CC4)CO3)nn2)COC1 [Compound I-95] |  | > 75 | 
40 | CN(C(=O)c1cn(CC2OCC3(CC3)CO2)nn1)c1ccc(C#CC2CC2)cc1Br [Compound I-38] | ≤ 300 |  | inhibition at 2 µM (HEK293, single concentration): > 75%
41 | O=C(c1cn(CC2OCC3(CC3)CO2)nn1)N(c1cc(C#CC2CC2)ccc1F)C1CC1 [Compound I-90] | ≤ 300 | > 75 | 
42 | Cc1cc(C#CC2CC2)ccc1N(C)C(=O)c1cn(CC2OCC3(CC3)CO2)nn1 [Compound I-21] | ≤ 300 | > 75 | 
43 | CN(C)c1cc(C#CC2CC2)ccc1N(C)C(=O)c1cn(CC2OCC3(CC3)CO2)nn1 [Compound I-1, 1-((5,7-dioxaspiro[2.5]octan-6-yl)methyl)-N-(4-(cyclopropylethynyl)-2-(dimethylamino)phenyl)-N-methyl-1H-1,2,3-triazole-4-carboxamide] | 300 to 1000 | > 75 | 
